Measured values from the supplement of paper PMC11061612.

Experiments:
[1] = system: Ca9-22 (Head and Neck Carcinoma); assay: Bliss excess, mean over the matrix (fraction); higher = more synergy
In short: (§1)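 Bliss excess equals the observed combination effect minus the expected value EA + EB − EA·EB, where EA and EB are the effects of each agent alone. Combination Emax is the second-highest inhibition within the matrix. Inhibition was scaled from CellTiter-Glo 2.0 luminescence, with 0 set by vehicle wells and 1 by blank wells, after 72 hours of two-drug dosing of cells plated in 1536-well plates.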

[2] = system: Caov-4 (Ovarian Carcinoma); assay: as above
In short: as §1

[3] = system: D-263MG (Glioblastoma); assay: as above
In short: as §1

[4] = system: EFM-19 (Breast Carcinoma); assay: as above
In short: as §1

[5] = system: EW-24 (Ewing's Sarcoma); assay: as above
In short: as §1

[6] = system: EoL-1-cell (Acute Myeloid Leukemia); assay: as above
In short: as §1

[7] = system: HOP-62 (Lung Adenocarcinoma); assay: as above
In short: as §1

[8] = system: Hs-766T (Pancreatic Carcinoma); assay: as above
In short: as §1

[9] = system: KYSE-450 (Esophageal Squamous Cell Carcinoma); assay: as above
In short: as §1

[10] = system: MIA-PaCa-2 (Pancreatic Carcinoma); assay: as above
In short: as §1

[11] = system: MLMA (Other Blood Carcinomas); assay: as above
In short: as §1

[12] = system: NB69 (Neuroblastoma); assay: as above
In short: as §1

[13] = system: NCI-H1915 (Non-Small Cell Lung Carcinoma); assay: as above
In short: as §1

[14] = system: NCI-H727 (Other Solid Carcinomas); assay: as above
In short: as §1

[15] = system: OSC-20 (Oral Cavity Carcinoma); assay: as above
In short: as §1

[16] = system: TE-1 (Esophageal Squamous Cell Carcinoma); assay: as above
In short: as §1

[17] = system: TGW (Neuroblastoma); assay: as above
In short: as §1

[18] = system: TK10 (Kidney Carcinoma); assay: as above
In short: as §1

[19] = system: VA-ES-BJ (Other Solid Carcinomas); assay: as above
In short: as §1

[20] = system: NEC8 (Other Solid Carcinomas); assay: combination Emax (second highest fraction inhibited in the dose matrix, 72 h); higher = more inhibition; extreme values may be limits of the assay
In short: as §1

| Structure (SMILES) | Bliss excess [1] | Bliss excess [2] | Bliss excess [3] | Bliss excess [4] | Bliss excess [5] | Bliss excess [6] | Bliss excess [7] | Bliss excess [8] | Bliss excess [9] | Bliss excess [10] | Bliss excess [11] | Bliss excess [12] | Bliss excess [13] | Bliss excess [14] | Bliss excess [15] | Bliss excess [16] | Bliss excess [17] | Bliss excess [18] | Bliss excess [19] | combination Emax [20] |
| --- | --- | --- | --- | --- | --- | --- | --- | --- | --- | --- | --- | --- | --- | --- | --- | --- | --- | --- | --- | --- |
| COc1cccc(OCCCN)c1-c1cc(Nc2cnc(C#N)cn2)n[nH]1 [Prexasertib] + CN(C)CCCOc1ccc(-c2ccc3ncc4c(c3c2)n(C2CCOCC2)c(=O)n4C)cn1 [AZD0156] (first compound max 1 µM, 7x7, partner max 1 µM) | -0.0123 | 0.0056 | 0.0273 | -0.0701 | -0.0082 | -0.0145 | -0.0042 | -0.0062 | -0.0713 | -0.0391 | -0.0349 | 0.0064 | -0.0086 | -0.0646 | -0.0111 | -0.0356 | -0.0253 | -0.0239 | -0.0395 | 0.986 |
| NC1(C(=O)N[C@@H](CCO)c2ccc(Cl)cc2)CCN(c2ncnc3[nH]ccc23)CC1 [Capivasertib] + CC(C)n1c(=O)n(C)c2cnc3cc(F)c(-c4ccc(OCCCN5CCCCC5)nc4)cc3c21 [AZD1390] (first compound max 10 µM, 7x7, partner max 0.3 µM) | -0.0368 | -0.0095 | -0.0713 | -0.0614 | -0.218 | -0.0173 | -0.0893 | -0.082 | -0.0209 | -0.048 | -0.0216 | -0.0787 | -0.0621 | -0.0922 | -0.0528 | -0.0818 | -0.106 | -0.0798 | -0.0467 | 0.144 |
| Cn1cnc2c(F)c(Nc3ccc(Br)cc3Cl)c(C(=O)NOCCO)cc21 [Selumetinib] + C=CCn1c(=O)c2cnc(Nc3ccc(N4CCN(C)CC4)cc3)nc2n1-c1cccc(C(C)(C)O)n1 [AZD1775] (first compound max 10 µM, partner max 1 µM) | 0.0321 | -0.0097 | -0.0567 | -0.0121 | -0.0025 | -0.053 | -0.0468 | -0.0559 | -0.037 | 0.0552 | -0.0257 | -0.0004 | -0.0462 | -0.0891 | -0.019 | -0.0277 | -0.0219 | -0.0412 | -0.112 | 0.628 |
| CC1(C)CCC(CN2CCN(c3ccc(C(=O)NS(=O)(=O)c4ccc(NCC5CCOCC5)c([N+](=O)[O-])c4)c(Oc4cnc5[nH]ccc5c4)c3)CC2)=C(c2ccc(Cl)cc2)C1 [Venetoclax] + C[C@@H]1COCCN1C2=NC(=NC(=C2)C3(CC3)[S@](=N)(=O)C)C4=C5C=CNC5=NC=C4 [AZD6738] (first compound max 1 µM, 7x7, partner max 10 µM) | -0.0019 | -0.0228 | 0.0199 | -0.0814 | 0.0218 | 0.0267 | -0.0649 | -0.0596 | -0.061 | -0.0632 | -0.0275 | 0.0496 | -0.0084 | -0.0801 | -0.0599 | -0.0131 | -0.0202 | -0.102 | -0.0185 | 0.749 |
| C=CCn1c(=O)c2cnc(Nc3ccc(N4CCN(C)CC4)cc3)nc2n1-c1cccc(C(C)(C)O)n1 [AZD1775] + C[C@@H]1COCCN1C2=NC(=NC(=C2)C3(CC3)[S@](=N)(=O)C)C4=C5C=CNC5=NC=C4 [AZD6738] (first compound max 1 µM, partner max 10 µM) | -0.0002 | -0.0268 | -0.0766 | -0.0503 | -0.0427 | 0.0033 | 0.0372 | -0.0217 | 0.0809 | 0.12 | -0.0079 | 0.0351 | -0.0225 | 0.0078 | 0.0026 | -0.0395 | 0.0606 | -0.0896 | 0.0568 | 0.932 |
| CC(=O)c1c(C)c2cnc(Nc3ccc(N4CCNCC4)cn3)nc2n(C2CCCC2)c1=O [Palbociclib] + CC1(C)CCC(CN2CCN(c3ccc(C(=O)NS(=O)(=O)c4ccc(NCC5CCOCC5)c([N+](=O)[O-])c4)c(Oc4cnc5[nH]ccc5c4)c3)CC2)=C(c2ccc(Cl)cc2)C1 [Venetoclax] (first compound max 10 µM, 7x7, partner max 1 µM) | -0.0044 | -0.057 | -0.0043 | -0.0475 | 0.0021 | 0.0515 | -0.0132 | -0.0544 | -0.0407 | -0.0392 | -0.15 | 0.0084 | 0.0174 | 0.0029 | -0.0545 | -0.0385 | -0.014 | -0.0312 | 0.0104 | 0.0159 |
| C=CCn1c(=O)c2cnc(Nc3ccc(N4CCN(C)CC4)cc3)nc2n1-c1cccc(C(C)(C)O)n1 [AZD1775] + O=C(c1cc(Cc2n[nH]c(=O)c3ccccc23)ccc1F)N1CCN(C(=O)C2CC2)CC1 [Olaparib] (first compound max 1 µM, partner max 10 µM) | -0.0664 | -0.0343 | -0.0366 | -0.0456 | -0.0708 | 0.0165 | -0.0381 | 0.0002 | -0.0897 | -0.0344 | -0.0914 | 0.0619 | -0.0223 | -0.0055 | -0.0205 | -0.0834 | -0.0383 | -0.0601 | -0.0424 | 0.284 |
| CC1(C)CCC(CN2CCN(c3ccc(C(=O)NS(=O)(=O)c4ccc(NCC5CCOCC5)c([N+](=O)[O-])c4)c(Oc4cnc5[nH]ccc5c4)c3)CC2)=C(c2ccc(Cl)cc2)C1 [Venetoclax] + Cn1cnc2c(F)c(Nc3ccc(Br)cc3Cl)c(C(=O)NOCCO)cc21 [Selumetinib] (first compound max 1 µM, 7x7, partner max 3 µM) | 0.0054 | 0.0087 | -0.0292 | -0.0607 | -0.0463 | 0.158 | -0.0155 | -0.0346 | -0.0432 | -0.0073 | 0.0401 | 0.0179 | -0.0541 | -0.0534 | -0.038 | 0.0008 | 0.0099 | -0.109 | -0.0473 | 0.104 |
| COc1nnc2ccc(N3CCC(c4ccc(OCCN5CCN(C)C(=O)[C@H]5C)cc4)CC3)nn12 [AZD5153] + C[C@@H]1COCCN1C2=NC(=NC(=C2)C3(CC3)[S@](=N)(=O)C)C4=C5C=CNC5=NC=C4 [AZD6738] (first compound max 1 µM, 7x7, partner max 10 µM) | -0.0481 | 0.097 | 0.0106 | 0.0541 | -0.0044 | -0.0066 | -0.0276 | -0.0137 | 0.0295 | 0.0077 | -0.111 | 0.008 | -0.0054 | 0.0364 | -0.0201 | 0.019 | -0.0601 | -0.0406 | 0.0315 | 0.954 |
| CC1(C)CCC(CN2CCN(c3ccc(C(=O)NS(=O)(=O)c4ccc(NCC5CCOCC5)c([N+](=O)[O-])c4)c(Oc4cnc5[nH]ccc5c4)c3)CC2)=C(c2ccc(Cl)cc2)C1 [Venetoclax] + C=CCn1c(=O)c2cnc(Nc3ccc(N4CCN(C)CC4)cc3)nc2n1-c1cccc(C(C)(C)O)n1 [AZD1775] (first compound max 1 µM, partner max 1 µM) | 0.0384 | 0.0534 | 0.0494 | -0.0335 | 0.0351 | 0.0156 | -0.0635 | -0.0049 | -0.0642 | 0.0944 | 0.0421 | -0.282 | -0.009 | 0.0475 | -0.0522 | -0.0667 | -0.0261 | -0.0444 | -0.0373 | 0.42 |
| COc1nnc2ccc(N3CCC(c4ccc(OCCN5CCN(C)C(=O)[C@H]5C)cc4)CC3)nn12 [AZD5153] + Cn1cnc2c(F)c(Nc3ccc(Br)cc3Cl)c(C(=O)NOCCO)cc21 [Selumetinib] (first compound max 1 µM, 7x7, partner max 10 µM) | 0.0592 | -0.053 | 0.0205 | -0.0565 | -0.0748 | 0.0345 | -0.0724 | -0.0627 | 0.025 | -0.0371 | -0.0447 | 0.0191 | -0.0186 | -0.0146 | -0.0816 | 0.0111 | -0.0392 | 0.0204 | -0.0155 | 0.929 |
| CC1(C)CCC(CN2CCN(c3ccc(C(=O)NS(=O)(=O)c4ccc(NCC5CCOCC5)c([N+](=O)[O-])c4)c(Oc4cnc5[nH]ccc5c4)c3)CC2)=C(c2ccc(Cl)cc2)C1 [Venetoclax] + COc1cc(Nc2ncc3c(n2)-c2ccc(Cl)cc2C(c2c(F)cccc2OC)=NC3)ccc1C(=O)O [Alisertib] (first compound max 1 µM, 7x7, partner max 10 µM) | -0.0147 | 0.0149 | 0.0522 | -0.0049 | 0.0205 | 0.0132 | -0.0381 | -0.0765 | 0.007 | -0.0131 | -0.046 | 0.0765 | -0.0072 | -0.0707 | -0.051 | 0.0279 | 0.0858 | -0.0694 | -0.0089 | 0.183 |
| CC1(C)CCC(CN2CCN(c3ccc(C(=O)NS(=O)(=O)c4ccc(NCC5CCOCC5)c([N+](=O)[O-])c4)c(Oc4cnc5[nH]ccc5c4)c3)CC2)=C(c2ccc(Cl)cc2)C1 [Venetoclax] + CN(C)CCCOc1ccc(-c2ccc3ncc4c(c3c2)n(C2CCOCC2)c(=O)n4C)cn1 [AZD0156] (first compound max 1 µM, 7x7, partner max 1 µM) | 0.0234 | -0.0256 | 0.0045 | -0.0184 | 0.0147 | 0.0038 | -0.0677 | -0.0841 | -0.0795 | 0.0184 | 0.0062 | -0.0548 | -0.018 | -0.0499 | -0.0304 | -0.0468 | -0.0245 | -0.0782 | -0.0204 | 0.174 |
| NC1(C(=O)N[C@@H](CCO)c2ccc(Cl)cc2)CCN(c2ncnc3[nH]ccc23)CC1 [Capivasertib] + CC(=O)c1c(C)c2cnc(Nc3ccc(N4CCNCC4)cn3)nc2n(C2CCCC2)c1=O [Palbociclib] (first compound max 10 µM, 7x7, partner max 10 µM) | 0.0171 | 0.0152 | 0.0117 | -0.0107 | 0.0087 | -0.0039 | -0.04 | 0.0056 | 0.0133 | 0.0767 | -0.0769 | -0.009 | -0.0247 | -0.0139 | -0.0005 | -0.0276 | -0.0744 | -0.0106 | 0.0144 | 0.187 |
